From ChEMBL document CHEMBL1137593, “Identification and optimisation of a series of substituted 5-pyridin-2-yl-thiophene-2-hydroxamic acids as potent histone deacetylase (HDAC) inhibitors” (Bioorg Med Chem Lett, 2007)

Assays:
Histone deacetylase 1 = Histone deacetylase 1 (Homo sapiens, UniProt Q13547); test: Inhibition of HDAC activity measured by HDAC Fluorescent Activity Assay (mean of two experiments); format: functional
HCT-116 = test: cells; format: functional, cell-based; details: Homo sapiens;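 also: inhibition of HCT116 cell growth as proliferation read-out, each value averaged over two experiments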
Description: Inhibition of HCT116 cell proliferation (mean of two experiments)

MCF7 = test: Inhibition of MCF7 cell proliferation (mean of two experiments); format: functional, cell-based; details: Homo sapiens
MDA-MB-231 = test: cells; format: functional, cell-based; details: Homo sapiens
Description: Inhibition of MDA-MB-231 cell proliferation (mean of two experiments)

CYP2C9 = CYP2C9 (Homo sapiens, UniProt P11712); test: Percent inhibition of CYP450 2C9 at 1 uM concentration; format: ADME
[1] = (§1) Oral bioavailability after oral dosing at 5 mg kg-1; format: ADME, organism-based; details: in vivo
Mus musculus [2] = test: as §1; format: ADME, organism-based; details: in vivo
CYP1A2 = target: T1, CYP1A2 (Homo sapiens, UniProt P05177); test: Percent inhibition of CYP450 1A2 at 1 uM concentration; format: ADME
T1 sequence (P05177 whole entry): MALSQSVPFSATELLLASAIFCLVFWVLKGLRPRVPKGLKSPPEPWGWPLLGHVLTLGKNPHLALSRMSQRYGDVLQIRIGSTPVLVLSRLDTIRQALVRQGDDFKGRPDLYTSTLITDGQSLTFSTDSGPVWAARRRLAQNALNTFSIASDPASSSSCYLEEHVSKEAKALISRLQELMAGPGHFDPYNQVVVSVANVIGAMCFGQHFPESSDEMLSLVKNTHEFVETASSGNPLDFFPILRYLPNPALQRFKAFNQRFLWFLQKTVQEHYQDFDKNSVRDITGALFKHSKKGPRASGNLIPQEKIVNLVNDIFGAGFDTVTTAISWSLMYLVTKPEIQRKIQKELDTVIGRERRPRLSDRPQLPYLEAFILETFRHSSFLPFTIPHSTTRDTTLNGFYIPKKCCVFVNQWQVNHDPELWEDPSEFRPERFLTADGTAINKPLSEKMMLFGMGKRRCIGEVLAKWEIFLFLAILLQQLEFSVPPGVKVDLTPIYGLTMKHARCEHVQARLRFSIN

[3] = Hepatocyte stability; format: ADME, cell-based; details: hepatocytes
[4] = Half life after i.v. dosing at 1 mg kg-1; format: ADME, organism-based; set-up: dose 1 mg kg-1, route intravenous; details: in vivo, iv
[5] = (§2) AUC after oral dosing at 5 mg kg-1; format: ADME, organism-based; set-up: dose 5 mg kg-1, route oral; details: rat, plasma
[6] = Permeability (Papp) run from pH 6.5-7.4; format: ADME, cell-based; details: human, Caco-2, pH 6.5
[7] = Bioavailability after i.p. dosing at 5 mg kg-1; format: ADME, organism-based; details: mouse, in vivo, ip
CYP2C19 = CYP2C19 (Homo sapiens, UniProt P33261); test: Percent inhibition of CYP450 2C19 at 1 uM concentration; format: ADME
[8] = Steady state volume of distribution (Vdss) after i.v. dosing at 1 mg kg-1; format: ADME, organism-based; set-up: dose 1 mg kg-1, route intravenous; details: in vivo, iv, read-out: Vdss
[9] = Microsome stability: percent compound remaining; format: ADME; details: microsomes
Mus musculus [10] = test: as §2; format: ADME, organism-based, Plasma; set-up: dose 5 mg kg-1, route oral; details: in vivo
CYP2D6 = CYP2D6 (Homo sapiens, UniProt P10635); test: Percent inhibition of CYP450 2D6 at 1uM concentration; format: ADME
[11] = AUC after i.p. dosing at 5 mg kg-1; format: ADME, organism-based; set-up: dose 5 mg kg-1, route intraperitoneal; details: mouse, plasma, ip
[12] = (§3) Clearance after i.v. dosing at 1 mg kg-1; format: ADME, organism-based; set-up: dose 1 mg kg-1, route intravenous; details: in vivo, iv
Mus musculus [13] = test: as §3; format: ADME, organism-based; set-up: dose 1 mg kg-1, route intravenous; details: in vivo, iv
Cytochrome P450 3A4 = Cytochrome P450 3A4 (Homo sapiens, UniProt P08684); test: Inhibition of CYP450 3A4; format: ADME
[14] = as §2; format: ADME, organism-based, Plasma; set-up: dose 5 mg kg-1, route oral; details: mouse, plasma

Sequence of Histone deacetylase 1 (Q13547 whole entry): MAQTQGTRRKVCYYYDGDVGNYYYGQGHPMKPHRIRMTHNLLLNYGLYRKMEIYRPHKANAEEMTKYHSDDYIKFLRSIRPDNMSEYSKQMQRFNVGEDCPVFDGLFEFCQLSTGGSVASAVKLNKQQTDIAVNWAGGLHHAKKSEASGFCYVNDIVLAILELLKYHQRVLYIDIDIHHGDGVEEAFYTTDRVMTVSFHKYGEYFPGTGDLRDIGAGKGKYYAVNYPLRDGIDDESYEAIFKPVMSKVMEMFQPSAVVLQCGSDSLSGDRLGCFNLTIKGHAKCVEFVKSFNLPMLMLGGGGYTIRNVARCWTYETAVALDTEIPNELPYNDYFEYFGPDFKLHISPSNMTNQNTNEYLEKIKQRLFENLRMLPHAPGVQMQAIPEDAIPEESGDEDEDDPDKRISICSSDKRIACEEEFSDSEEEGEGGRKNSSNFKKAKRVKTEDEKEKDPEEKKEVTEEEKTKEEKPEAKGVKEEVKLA
Sequence of CYP2C9 (P11712 whole entry): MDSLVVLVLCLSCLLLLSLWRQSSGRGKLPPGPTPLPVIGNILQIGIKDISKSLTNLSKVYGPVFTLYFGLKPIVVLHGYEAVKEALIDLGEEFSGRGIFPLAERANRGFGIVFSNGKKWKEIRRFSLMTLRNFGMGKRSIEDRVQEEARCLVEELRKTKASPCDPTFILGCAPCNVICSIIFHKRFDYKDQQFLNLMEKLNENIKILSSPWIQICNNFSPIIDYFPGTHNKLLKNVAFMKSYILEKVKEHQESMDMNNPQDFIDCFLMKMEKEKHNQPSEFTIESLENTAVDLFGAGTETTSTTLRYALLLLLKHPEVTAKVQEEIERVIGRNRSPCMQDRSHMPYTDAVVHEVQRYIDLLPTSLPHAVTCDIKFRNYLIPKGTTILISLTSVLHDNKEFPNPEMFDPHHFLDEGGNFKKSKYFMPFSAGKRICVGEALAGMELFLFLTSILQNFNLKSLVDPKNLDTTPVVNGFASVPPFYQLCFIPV
Sequence of CYP2D6 (P10635 whole entry): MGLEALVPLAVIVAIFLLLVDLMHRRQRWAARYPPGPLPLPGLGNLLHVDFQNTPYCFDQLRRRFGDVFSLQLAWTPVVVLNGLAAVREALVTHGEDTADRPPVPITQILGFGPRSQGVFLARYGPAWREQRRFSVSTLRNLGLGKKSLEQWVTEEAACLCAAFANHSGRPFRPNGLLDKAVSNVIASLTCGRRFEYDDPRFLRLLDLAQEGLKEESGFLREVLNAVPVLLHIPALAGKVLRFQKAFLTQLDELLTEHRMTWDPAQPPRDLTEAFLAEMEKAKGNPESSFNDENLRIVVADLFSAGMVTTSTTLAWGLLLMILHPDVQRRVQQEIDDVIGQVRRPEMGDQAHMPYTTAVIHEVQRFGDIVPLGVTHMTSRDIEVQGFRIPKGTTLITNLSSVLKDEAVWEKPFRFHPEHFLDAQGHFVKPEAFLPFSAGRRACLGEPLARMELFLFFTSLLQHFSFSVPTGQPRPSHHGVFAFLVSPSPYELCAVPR
Sequence of Cytochrome P450 3A4 (P08684 whole entry): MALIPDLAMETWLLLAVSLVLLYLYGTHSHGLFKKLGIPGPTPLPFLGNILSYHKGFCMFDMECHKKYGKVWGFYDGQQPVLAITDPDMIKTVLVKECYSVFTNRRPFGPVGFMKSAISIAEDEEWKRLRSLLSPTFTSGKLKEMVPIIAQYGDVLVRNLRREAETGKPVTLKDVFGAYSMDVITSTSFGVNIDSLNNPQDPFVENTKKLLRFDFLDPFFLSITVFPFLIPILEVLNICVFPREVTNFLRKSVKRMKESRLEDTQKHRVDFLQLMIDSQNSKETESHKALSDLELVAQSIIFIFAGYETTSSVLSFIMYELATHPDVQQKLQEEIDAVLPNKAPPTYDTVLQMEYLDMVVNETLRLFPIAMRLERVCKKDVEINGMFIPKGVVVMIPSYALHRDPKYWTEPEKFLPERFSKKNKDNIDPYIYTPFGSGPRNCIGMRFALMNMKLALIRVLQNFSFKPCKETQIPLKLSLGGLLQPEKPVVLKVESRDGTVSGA
Sequence of CYP2C19 (P33261 whole entry): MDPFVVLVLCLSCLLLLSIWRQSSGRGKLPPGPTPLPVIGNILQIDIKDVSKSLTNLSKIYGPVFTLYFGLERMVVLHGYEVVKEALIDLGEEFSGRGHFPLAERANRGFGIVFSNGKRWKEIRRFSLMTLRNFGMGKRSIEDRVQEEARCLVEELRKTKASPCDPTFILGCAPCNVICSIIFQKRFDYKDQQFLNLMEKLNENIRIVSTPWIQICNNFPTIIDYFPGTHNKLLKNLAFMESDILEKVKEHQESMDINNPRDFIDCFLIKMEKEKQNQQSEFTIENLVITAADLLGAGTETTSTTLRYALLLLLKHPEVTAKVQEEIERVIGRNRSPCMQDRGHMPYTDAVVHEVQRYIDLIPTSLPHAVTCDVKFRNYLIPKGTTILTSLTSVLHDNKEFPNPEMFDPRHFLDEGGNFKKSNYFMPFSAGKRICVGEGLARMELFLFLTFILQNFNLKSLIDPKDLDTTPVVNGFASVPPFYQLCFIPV

Question: With `O=C(NO)c1ccc(-c2ccncc2)s1` as the compound, how does the IC50 (Histone deacetylase 1) read?
Answer: 1260 nM

Question: With `O=C(NO)c1ccc(-c2ccc(CCNCc3ccc4c(c3)OCO4)cn2)s1` as the compound, how does the IC50 (Histone deacetylase 1) read?
Answer: 9 nM

Question: And the IC50 (HCT-116)?
Answer: 110 nM

Question: What about the IC50 (MCF7) of the same compound?
Answer: 70 nM

Question: Which results are given for `CN(Cc1ccccc1)Cc1ccc(-c2ccc(C(=O)NO)s2)nc1`?
Answer: IC50 (MDA-MB-231): 370 nM; IC50 (Histone deacetylase 1): 35 nM; IC50 (MCF7): 150 nM

Question: What does the source list for `Cc1ccccc1CCNCc1ccc(-c2ccc(C(=O)NO)s2)nc1`?
Answer: IC50 (Histone deacetylase 1): 8 nM; IC50 (HCT-116): 70 nM; IC50 (MCF7): 90 nM

Question: With `O=C(NO)c1ccc(-c2ccc(CNCCc3ccccc3Cl)cn2)s1` as the compound, how does the IC50 (Histone deacetylase 1) read?
Answer: 6 nM

Question: What about the IC50 (HCT-116) of the same compound?
Answer: 80 nM

Question: What about the IC50 (MCF7) of the same compound?
Answer: 80 nM

Question: With `O=C(NO)c1ccc(-c2cccc(CNCCc3ccccc3)n2)s1` as the compound, how does the IC50 (Histone deacetylase 1) read?
Answer: 581 nM

Question: And the IC50 (MCF7)?
Answer: 3840 nM

Question: With `O=C(NO)c1ccc(-c2ccccc2)s1` as the compound, how does the IC50 (Histone deacetylase 1) read?
Answer: 900 nM

Question: What about the IC50 (MCF7) of the same compound?
Answer: 31000 nM

Question: What does the source list for `O=C(NO)c1ccc(-c2ccn(CCNCc3ccc4c(c3)OCO4)n2)s1`?
Answer: inhibition at 1 µM (CYP2C9): 0%; bioavailability ([1]; rat): 2%; F (Mus musculus [2]): 1%; inhibition at 1 µM (CYP1A2): 9%; Hepatocyte stability ([3]; human): 15 uL/min/10e6 cells; Hepatocyte stability ([3]; rat): 26 uL/min/10e6 cells; half-life ([4]; mouse): 2.5 h; half-life ([4]; rat): 1.6 h; AUC [5]: 100 ng·h/mL; Papp [6]: 4.2 ×10⁻⁶ cm/s; bioavailability [7]: 85%; inhibition at 1 µM (CYP2C19): 71%; Vd ([8]; mouse): 0.4 L/kg; Vd ([8]; rat): 0.9 L/kg; Percent remaining ([9]; human): 55%; Percent remaining ([9]; mouse): 5%; AUC (Mus musculus [10]): 900 ng·h/mL; inhibition at 1 µM (CYP2D6): 8%; AUC [11]: 7200 ng·h/mL; clearance ([12]; rat): 21 mL/min/kg; CL (Mus musculus [13]): 10 mL/min/kg; IC50 (Cytochrome P450 3A4): 53000 nM

Question: With `O=C(NO)c1ccc(-c2ccc(CNCc3ccc4c(c3)OCCO4)cn2)s1` as the compound, how does the IC50 (Histone deacetylase 1) read?
Answer: 11 nM

Question: And the IC50 (HCT-116)?
Answer: 90 nM

Question: And the IC50 (MCF7)?
Answer: 50 nM

Question: Which IC50 (MDA-MB-231) does the source give for `O=C(NO)c1ccc(-c2ccc(CNc3ccccc3)cn2)s1` here?
Answer: 630 nM

Question: What about the IC50 (Histone deacetylase 1) of the same compound?
Answer: 16 nM

Question: And the IC50 (MCF7)?
Answer: 370 nM

Question: Which results are given for `O=C(NO)c1ccc(-c2ccc(CNCc3ccccc3)cn2)s1`?
Answer: inhibition at 1 µM (CYP2C9): -14%; bioavailability ([1]; mouse): 36%; bioavailability ([1]; rat): 50%; inhibition at 1 µM (CYP1A2): 17%; IC50 (MDA-MB-231): 220 nM; Hepatocyte stability ([3]; human): 7 uL/min/10e6 cells; Hepatocyte stability ([3]; rat): 27 uL/min/10e6 cells; half-life ([4]; mouse): 0.17 h; half-life ([4]; rat): 2.7 h; IC50 (Histone deacetylase 1): 16 nM; IC50 (HCT-116): 110 nM; AUC [5]: 3300 ng·h/mL; Papp [6]: 15.4 ×10⁻⁶ cm/s; bioavailability [7]: 100%; inhibition at 1 µM (CYP2C19): -4%; Vd ([8]; mouse): 1.1 L/kg; Vd ([8]; rat): 2.9 L/kg; Percent remaining ([9]; human): 88%; Percent remaining ([9]; mouse): 35%; AUC [14]: 360 ng·h/mL; IC50 (MCF7): 80 nM; inhibition at 1 µM (CYP2D6): 1%; AUC [11]: 1250 ng·h/mL; clearance ([12]; mouse): 83 mL/min/kg; clearance ([12]; rat): 13 mL/min/kg; IC50 (Cytochrome P450 3A4): 26000 nM

Question: Which IC50 (MDA-MB-231) does the source give for `O=C(NO)c1ccc(-c2ccc(CNCc3ccccc3Cl)cn2)s1` here?
Answer: 170 nM

Question: What about the IC50 (Histone deacetylase 1) of the same compound?
Answer: 7 nM

Question: And the IC50 (MCF7)?
Answer: 110 nM

Question: For `O=C(NO)c1ccc(-c2cccnc2)s1`, which IC50 (Histone deacetylase 1) is on record?
Answer: 1130 nM

Question: With `O=C(NO)c1ccc(-c2ccc(CNCCc3cccc4occc34)cn2)s1` as the compound, how does the IC50 (Histone deacetylase 1) read?
Answer: 4 nM

Question: And the IC50 (HCT-116)?
Answer: 120 nM

Question: And the IC50 (MCF7)?
Answer: 60 nM

Question: What does the source list for `COc1ccccc1CCNCc1ccc(-c2ccc(C(=O)NO)s2)nc1`?
Answer: IC50 (Histone deacetylase 1): 17 nM; IC50 (HCT-116): 80 nM; IC50 (MCF7): 60 nM

Question: With `O=C(NO)c1ccc(-c2ccc(CNCc3ccc(Cl)cc3)cn2)s1` as the compound, how does the IC50 (MDA-MB-231) read?
Answer: 300 nM

Question: What about the IC50 (Histone deacetylase 1) of the same compound?
Answer: 9 nM

Question: What about the IC50 (MCF7) of the same compound?
Answer: 130 nM

Question: Which IC50 (MDA-MB-231) does the source give for `O=C(NO)c1ccc(-c2ccc(NCCc3ccccc3)cn2)s1` here?
Answer: 3510 nM

Question: What about the IC50 (Histone deacetylase 1) of the same compound?
Answer: 80 nM

Question: And the IC50 (MCF7)?
Answer: 1470 nM

Question: What does the source list for `O=C(NO)c1ccc(-c2ccc(CCNCc3ccc(F)cc3)cn2)s1`?
Answer: IC50 (Histone deacetylase 1): 13 nM; IC50 (HCT-116): 140 nM; IC50 (MCF7): 90 nM
